Reference: PMC4912218, “Targeted metabolomics of Gammarus pulex following controlled exposures to selected pharmaceuticals in water” (The Science of the Total Environment, 2016)

Test system: Gammarus pulex
Experiment: Targeted metabolite profiling (LC-HRMS) of G. pulex after exposure at NOAEL and LOAEL
Assay type: in vivo
Procedure: Approximately 100 specimens were introduced in a tank containing 1 L of AFW (control), 1 L of AFW spiked with C1 and 1 L of AFW with C2. At three different times (2, 6 and 24 h), 4 replicates of live G. pulex (a pool of 6–7 animals for each replicate) were collected, frozen on dry ice and then stored at − 80 °C before metabolite profiling was performed.
Quantification of pharmaceutical concentrations in G. pulex at the 24 h exposure interval was performed. Separate exposures were set up in triplicate in beakers containing 200 mL of exposure solution (AFW spiked with the respective C1 pharmaceutical dose) and 20 organisms. At 24 h, animals were immediately rinsed with ultra-pure water and then frozen at − 20 °C for 24 h. […] Prior to extraction, frozen G. pulex samples were lyophilised at − 50 °C under vacuum for 48 h and milled in an agate mortar to a fine powder. For each analysis, 20 mg of a lyophilised composite sample were transferred to 2 mL polypropylene tubes (Eppendorf®, Hamburg, Germany), for solid-liquid extraction (SLE). […] Then, samples were shaken for 25 min on a vibration plate (IKA® KS 260 basic) and centrifuged at 14,000 rpm for 25 min at 0 °C. Finally, the supernatant was transferred to a chromatographic vial by using a […] syringe filter (Whatman, GE Healthcare Life Sciences, Buckinghamshire, UK). All samples were stored at − 80 °C until LC-HRMS analysis.
Briefly, 50 mg of lyophilised G. pulex were extracted in 5 mL of acetonitrile and pre-concentrated on Oasis HLB SPE cartridges (6 mL, 200 mg sorbent). The extract was eluted, dried-down and reconstituted in starting LC mobile phase. […] Organic acids, nucleosides, nucleotides, sugars and AAs were measured using LC–HRMS. An Exactive™ mass spectrometer equipped with heated electrospray ionization (H-ESI) source was used (Thermo Fisher Scientific, Bremen, Germany). The system was equipped with a HTC PAL autosampler and a Surveyor MS Plus pump. A TSK Gel-Amide 80 column (2 × 250 mm, 5 μm) for analyte separation was purchased from Sigma Aldrich. Mobile phases were binary mixtures of acetonitrile (A) and 5 mM ammonium acetate (pH 5) in HPLC-grade water (B). […] The flow rate was set at 150 μL min^− 1 and the injection volume was 5 μL. […] Full scan acquisition over a mass range of 80–800 Da was performed at 70,000 full width at half maximum (FWHM) and spray voltage at 3.00 kV, capillary voltage at 30 V, skimmer voltage at 28 V and tube lens voltage at 130 V were used. A sheath gas flow rate of 45 arbitrary units (au), an auxiliary gas flow rate of 10 au and a capillary temperature at 300 °C were selected.
Here, pharmaceutical residue quantification in exposed G. pulex was performed by a 3-point matrix-matched calibration curve. […] The algal amino acid mixture-^13C,^15N (see Table 1) was used as internal standard (IS) for extraction and analytical control. L-ornithine hydrochloride, inosine, thymidine, taurine, 1.7-dimethylxanthine and (−)-riboflavin were quantified using either ^13C,^15N-proline or ^13C,^15N-tyrosine as the internal standard. The remaining 15 compounds were quantified using external calibration and the target compound itself was used as external standard. […] The method detection limit (MDL) was calculated following the same procedure, using spiked lyophilised G. pulex samples at a concentration of 1 μg g^− 1. Intra-assay variation was assessed using five consecutive injections of 5 ng μL^− 1 standard solution, and inter-assay variation was determined by measuring the same standard solution on four different days. […] Recovery studies were performed in triplicate, using lyophilised G. pulex samples spiked at 1 μg g^− 1 with the metabolites mixture and the algal amino acid mixture-^13C, ^15N.

Question: For `Oc1cc(Cl)ccc1Oc1ccc(Cl)cc1Cl` [Triclosan], which “(-)-Riboflavin concentration in G. pulex” value (6h, C2= 0.3 mg/L) is on record?
Answer: 2.6 ± 0.3 µg/g

Question: What about the “ADP concentration in G. pulex” value (6h, C2= 0.3 mg/L) of the same molecule?
Answer: 28.2 ± 0.3 µg/g

Question: What about the “Cytidine concentration in G. pulex” value (6h, C2= 0.3 mg/L) of the same molecule?
Answer: 19 ± 7 µg/g

Question: And the “Hypoxanthine concentration in G. pulex” value (6h, C2= 0.3 mg/L)?
Answer: 74 ± 18 µg/g

Question: And the “Inosine concentration in G. pulex” value (6h, C2= 0.3 mg/L)?
Answer: 23098 ± 627 µg/g

Question: And the “L-2-amino-n-butyric concentration in G. pulex” value (6h, C2= 0.3 mg/L)?
Answer: 19.8 ± 2 µg/g

Question: And the “L-(-)-Proline concentration in G. pulex” value (6h, C2= 0.3 mg/L)?
Answer: 246 ± 4 µg/g

Question: What about the “L-Alanine concentration in G. pulex” value (6h, C2= 0.3 mg/L) of the same molecule?
Answer: 784 ± 31 µg/g

Question: And the “L-Citrulline concentration in G. pulex” value (6h, C2= 0.3 mg/L)?
Answer: 12.3 ± 1 µg/g

Question: And the “L-Isoleucine concentration in G. pulex” value (6h, C2= 0.3 mg/L)?
Answer: 1561 ± 147 µg/g

Question: And the “L-Leucine concentration in G. pulex” value (6h, C2= 0.3 mg/L)?
Answer: 353 ± 4 µg/g

Question: What about the “L-Methionine concentration in G. pulex” value (6h, C2= 0.3 mg/L) of the same molecule?
Answer: 4.6 ± 0.8 µg/g

Question: What about the “L-Phenylalanine concentration in G. pulex” value (6h, C2= 0.3 mg/L) of the same molecule?
Answer: 233 ± 5 µg/g

Question: What about the “L-Serine concentration in G. pulex” value (6h, C2= 0.3 mg/L) of the same molecule?
Answer: 168 ± 2 µg/g

Question: And the “L-Threonine concentration in G. pulex” value (6h, C2= 0.3 mg/L)?
Answer: 486 ± 8 µg/g

Question: What about the “L-Tryptophan concentration in G. pulex” value (6h, C2= 0.3 mg/L) of the same molecule?
Answer: 134 ± 10 µg/g

Question: What about the “L-Tyrosine concentration in G. pulex” value (6h, C2= 0.3 mg/L) of the same molecule?
Answer: 234 ± 2 µg/g

Question: What about the “L-Valine concentration in G. pulex” value (6h, C2= 0.3 mg/L) of the same molecule?
Answer: 299 ± 18 µg/g

Question: And the “L-aspartic acid concentration in G. pulex” value (6h, C2= 0.3 mg/L)?
Answer: 36.1 ± 6 µg/g

Question: What about the “NADH concentration in G. pulex” value (6h, C2= 0.3 mg/L) of the same molecule?
Answer: 8.1 ± 0.8 µg/g

Question: What about the “Taurine concentration in G. pulex” value (6h, C2= 0.3 mg/L) of the same molecule?
Answer: 8484 ± 60 µg/g

Question: What about the “Thymidine concentration in G. pulex” value (6h, C2= 0.3 mg/L) of the same molecule?
Answer: 1163 ± 130 µg/g

Question: And the “Trehalose concentration in G. pulex” value (6h, C2= 0.3 mg/L)?
Answer: 251 ± 4 µg/g

Question: What about the “Uridine concentration in G. pulex” value (6h, C2= 0.3 mg/L) of the same molecule?
Answer: 533 ± 28 µg/g

Question: And the “(-)-Riboflavin concentration in G. pulex” value (24h, C1= 0.1 mg/L)?
Answer: 2.4 ± 2 µg/g

Question: What about the “ADP concentration in G. pulex” value (24h, C1= 0.1 mg/L) of the same molecule?
Answer: 18.7 ± 1 µg/g

Question: What about the “Cytidine concentration in G. pulex” value (24h, C1= 0.1 mg/L) of the same molecule?
Answer: 19 ± 3 µg/g

Question: What about the “Hypoxanthine concentration in G. pulex” value (24h, C1= 0.1 mg/L) of the same molecule?
Answer: 95 ± 27 µg/g

Question: What about the “Inosine concentration in G. pulex” value (24h, C1= 0.1 mg/L) of the same molecule?
Answer: 18957 ± 5084 µg/g

Question: What about the “L-2-amino-n-butyric concentration in G. pulex” value (24h, C1= 0.1 mg/L) of the same molecule?
Answer: 16.8 ± 5 µg/g

Question: And the “L-(-)-Proline concentration in G. pulex” value (24h, C1= 0.1 mg/L)?
Answer: 293 ± 13 µg/g

Question: And the “L-Alanine concentration in G. pulex” value (24h, C1= 0.1 mg/L)?
Answer: 810 ± 110 µg/g

Question: What about the “L-Citrulline concentration in G. pulex” value (24h, C1= 0.1 mg/L) of the same molecule?
Answer: 8.3 ± 0.5 µg/g

Question: What about the “L-Isoleucine concentration in G. pulex” value (24h, C1= 0.1 mg/L) of the same molecule?
Answer: 1743 ± 224 µg/g

Question: What about the “L-Leucine concentration in G. pulex” value (24h, C1= 0.1 mg/L) of the same molecule?
Answer: 376 ± 13 µg/g

Question: What about the “L-Methionine concentration in G. pulex” value (24h, C1= 0.1 mg/L) of the same molecule?
Answer: 7.0 ± 0.3 µg/g

Question: What about the “L-Phenylalanine concentration in G. pulex” value (24h, C1= 0.1 mg/L) of the same molecule?
Answer: 260 ± 6 µg/g

Question: What about the “L-Serine concentration in G. pulex” value (24h, C1= 0.1 mg/L) of the same molecule?
Answer: 120 ± 12 µg/g

Question: And the “L-Threonine concentration in G. pulex” value (24h, C1= 0.1 mg/L)?
Answer: 600 ± 20 µg/g

Question: And the “L-Tryptophan concentration in G. pulex” value (24h, C1= 0.1 mg/L)?
Answer: 72 ± 8 µg/g

Question: What about the “L-Tyrosine concentration in G. pulex” value (24h, C1= 0.1 mg/L) of the same molecule?
Answer: 307 ± 4 µg/g

Question: What about the “L-Valine concentration in G. pulex” value (24h, C1= 0.1 mg/L) of the same molecule?
Answer: 398 ± 17 µg/g

Question: And the “L-aspartic acid concentration in G. pulex” value (24h, C1= 0.1 mg/L)?
Answer: 82.5 ± 26 µg/g

Question: And the “NADH concentration in G. pulex” value (24h, C1= 0.1 mg/L)?
Answer: 7.7 ± 0.1 µg/g

Question: And the “Taurine concentration in G. pulex” value (24h, C1= 0.1 mg/L)?
Answer: 12433 ± 2122 µg/g

Question: And the “Thymidine concentration in G. pulex” value (24h, C1= 0.1 mg/L)?
Answer: 1718 ± 19 µg/g

Question: What about the “Trehalose concentration in G. pulex” value (24h, C1= 0.1 mg/L) of the same molecule?
Answer: 251 ± 22 µg/g

Question: And the “Uridine concentration in G. pulex” value (24h, C1= 0.1 mg/L)?
Answer: 644 ± 77 µg/g

Question: And the “(-)-Riboflavin concentration in G. pulex” value (24h, C2= 0.3 mg/L)?
Answer: 2.6 ± 0.8 µg/g

Question: And the “ADP concentration in G. pulex” value (24h, C2= 0.3 mg/L)?
Answer: 29.3 ± 0.8 µg/g

Question: What about the “Cytidine concentration in G. pulex” value (24h, C2= 0.3 mg/L) of the same molecule?
Answer: 16 ± 3 µg/g

Question: What about the “Hypoxanthine concentration in G. pulex” value (24h, C2= 0.3 mg/L) of the same molecule?
Answer: 53 ± 10 µg/g

Question: And the “Inosine concentration in G. pulex” value (24h, C2= 0.3 mg/L)?
Answer: 36017 ± 80 µg/g

Question: What about the “L-2-amino-n-butyric concentration in G. pulex” value (24h, C2= 0.3 mg/L) of the same molecule?
Answer: 21.5 ± 2 µg/g

Question: And the “L-(-)-Proline concentration in G. pulex” value (24h, C2= 0.3 mg/L)?
Answer: 207 ± 3 µg/g

Question: What about the “L-Alanine concentration in G. pulex” value (24h, C2= 0.3 mg/L) of the same molecule?
Answer: 673 ± 17 µg/g

Question: And the “L-Citrulline concentration in G. pulex” value (24h, C2= 0.3 mg/L)?
Answer: 13.8 ± 2 µg/g

Question: What about the “L-Isoleucine concentration in G. pulex” value (24h, C2= 0.3 mg/L) of the same molecule?
Answer: 1164 ± 39 µg/g

Question: What about the “L-Leucine concentration in G. pulex” value (24h, C2= 0.3 mg/L) of the same molecule?
Answer: 299 ± 0.7 µg/g

Question: And the “L-Methionine concentration in G. pulex” value (24h, C2= 0.3 mg/L)?
Answer: 3.1 ± 0.9 µg/g

Question: What about the “L-Phenylalanine concentration in G. pulex” value (24h, C2= 0.3 mg/L) of the same molecule?
Answer: 134 ± 0.5 µg/g

Question: And the “L-Serine concentration in G. pulex” value (24h, C2= 0.3 mg/L)?
Answer: 167 ± 15 µg/g

Question: What about the “L-Threonine concentration in G. pulex” value (24h, C2= 0.3 mg/L) of the same molecule?
Answer: 440 ± 11 µg/g

Question: What about the “L-Tryptophan concentration in G. pulex” value (24h, C2= 0.3 mg/L) of the same molecule?
Answer: 115 ± 8 µg/g

Question: What about the “L-Tyrosine concentration in G. pulex” value (24h, C2= 0.3 mg/L) of the same molecule?
Answer: 224 ± 1 µg/g

Question: And the “L-Valine concentration in G. pulex” value (24h, C2= 0.3 mg/L)?
Answer: 250 ± 3 µg/g

Question: And the “L-aspartic acid concentration in G. pulex” value (24h, C2= 0.3 mg/L)?
Answer: 33.9 ± 11 µg/g

Question: What about the “NADH concentration in G. pulex” value (24h, C2= 0.3 mg/L) of the same molecule?
Answer: 9.9 ± 0.3 µg/g

Question: And the “Taurine concentration in G. pulex” value (24h, C2= 0.3 mg/L)?
Answer: 8468 ± 142 µg/g

Question: And the “Thymidine concentration in G. pulex” value (24h, C2= 0.3 mg/L)?
Answer: 396 ± 12 µg/g

Question: What about the “Trehalose concentration in G. pulex” value (24h, C2= 0.3 mg/L) of the same molecule?
Answer: 378 ± 17 µg/g

Question: And the “Uridine concentration in G. pulex” value (24h, C2= 0.3 mg/L)?
Answer: 574 ± 15 µg/g
